Assay results as given in patent US20040121992A1, “Therapeutic methods of reducing cholesterol accumulation” (priority 2002, published 2004).
Values joined by “and” are separate entries in the source; they are usually repeats but may differ in a detail not shown here. Equal values may be shown once. Read-outs that look alike come from different tables or passages of the source.

Experiments:
[1] = tested on: CHO cells; assay type: cell-based; conditions: for % new chol / ug cholest. / ug new chl / 372/368: 5 uM, CHO cells; for % new chol / ug cholest. / ug new chl: duplicate samples; for 372/368: ion ratio m/z 372 to m/z 368, duplicate samples
[2] = tested on: SLOS fibroblasts; assay type: cell-based, human
Procedure: The effect of 27-hydroxy-7-dehydrocholesterol on cholesterol synthesis was studied in CHO cells (Table 2). SLOS fibroblasts were plated at a density of 375,000 cells in a T-25 flask in DMEM containing 10% fetal bovine serum. After 24 hours, the media was changed to McCoy's 5A containing 7.5% lipoprotein deficient serum and 25% D2O. To these cultures, either 5 μM of 27-hydroxycholesterol or 27-hydroxy-7-dehydrocholesterol in hydroxypropyl-β-cyclodextrin were added. Control cultures had only the vehicle added. Media was changed on day 3 and cell pellets were obtained on day 5. Newly synthesized 7-DHC was determined by a combination of GLC-FID and GLC-MS. At a medium concentration of 5 μM 27-hydroxy-7-dehydrocholesterol, the synthesis rate of 7-DHC fell to less than 2 ng/day/T-25 flask in each cell line. […] In untreated cultures, the rates of 7-DHC synthesis were 326±8 and 1414±88 ng/day/T-25 flask (mean±SD) for A2SLO and 4350SLO respectively.

CC(CO)CCC[C@@H](C)[C@H]1CC[C@H]2[C@@H]3CC=C4C[C@@H](O)CC[C@]4(C)[C@H]3CC[C@]12C (stereo partly drawn) [27-hydroxycholesterol, cholest-5-ene-3 β, 27-diol, reference compound]
% new chol ([1]; listed as 27OH): 4.4% and 3.6%
ug cholest. ([1]; listed as 27OH): 29.9 µg and 33.1 µg
ug new chl ([1]; listed as 27OH): 1.3 µg and 1.2 µg
372/368 ([1]; listed as 27OH): 0.013 and 0.011

CC(CO)CCC[C@@H](C)[C@H]1CC[C@H]2C3=CC=C4C[C@@H](O)CC[C@]4(C)[C@H]3CC[C@]12C (stereo partly drawn) [27-hydroxy-7-dehydrocholesterol, cholesta-5,7-diene-3β-27 diol]
metabolism to 27-hydroxycholesterol in SLOS fibroblasts [2]: did not metabolize
synthesis rate of 7-DHC ([2]; medium concentration 5 μM, each cell line (A2SLO and 4350SLO), untreated 326±8 and 1414±88): less than 2 ng/day/T-25 flask
% new chol [1]: 2.6% and 2.9%
ug cholest. [1]: 29.5 µg and 32.6 µg
ug new chl [1]: 0.78 µg and 0.95 µg
372/368 [1]: 0.0079 and 0.0087
inhibition of cholesterol synthesis compared with an equimolar amount of 27-hydroxycholesterol ([1]; 5 μM, cell culture): slightly greater
inhibition of cholesterol synthesis (in words) ([1]; cell culture assays): potent inhibitor of cholesterol synthesis
